pIC50: −log10 of the molar value. Where “and” joins values, the source holds several entries; their conditions need not be identical. Equal values may be shown once.
Each molecule was assayed on human Cav3.1 Cav3.2 or Cav3.3 channel (assay: In vitro assay T channel (FLIPR calcium fluorescence)). Details: HEK293 cells expressing human Cav3.1, Cav3.2 or Cav3.3; 10 mM Ca2+-induced fluo-4 fluorescence; determined up to 10 μM; read-out: T channel antagonistic activity IC50.
Assay type: cell-based
Experimental: The T channel antagonistic activity (IC50 values) of the compounds of formula (I) is determined in accordance with the following experimental method and data are shown in Table 1.
Human embryonic kidney (HEK293) cells expressing the human Cav3.1 Cav3.2 or Cav3.3 channel, respectively, are grown in culture medium (DMEM containing 10% heat-inactivated fetal calf serum (FCS), 100 U/ml penicillin, 100 μg/ml streptomycin and 1 mg/ml G418). The cells are seeded at 20.000 cells/well into 384-well black clear bottom sterile plates (poly-L-lysine-coated, Becton Dickinson). The seeded plates are incubated overnight at 37° C. in 5% CO2. The Ca^2+ solution is prepared as 100 mM stock solution in 100 mM tetraethylammoniumchloride (TEA-chloride), 50 mM HEPES, 2.5 mM CaCl2, 5 mM KCl, 1 mM MgCl2, adjusted to pH 7.2 with TEA-hydroxide, for use in the assay at a final concentration of 10 mM. Antagonists are prepared as 10 mM stock solutions in DMSO, then diluted in 384 w plates first in DMSO, then in 100 mM TEA-chloride, 50 mM HEPES, 2.5 mM CaCl2, 5 mM KCl, 1 mM MgCl2, adjusted to pH 7.2 with TEA-hydroxide, to obtain 9× stocks. On the day of the assay, 25 μl of staining buffer (HBSS containing 20 mM HEPES, 0.375 g/l NaHCO3 and 3 μM of the fluorescent calcium indicator fluo-4 AM (1 mM stock solution in DMSO, containing 10% pluronic) is added to each well of the seeded plate. The 384-well cell-plates are incubated for 60 min at 37° C. in 5% CO2 followed by washing with 2×50 μl per well using HBSS containing 0.1% BSA, 20 mM HEPES, 0.375 g/l NaHCO3, leaving 50 […] of this buffer for equilibration at room temperature (30-60 min). Within the Fluorescent Imaging Plate Reader (FLIPR, Molecular Devices), antagonists are added to the plate in a volume of 6.25 μl/well, incubated for 3 min, and finally 6.25 […] of Ca^2+ solution is added. Fluorescence is measured for each well at 2 second intervals for 8 minutes, and the area under the curve of each fluorescence peak is compared to the area of the fluorescence peak induced by 10 mM Ca^2+ with vehicle in place of antagonist. For each antagonist, the IC50 value (the concentration (in nM) of compound needed to inhibit 50% of the Ca^2+-induced fluorescence response) up to 10 μM is determined.

Molecule	pIC50
CN(CCCc1nc2ccccc2[nH]1)CC[C@]1(O)C[C@H]2CC[C@@H]1C=C2c1cccc(F)c1 (relative stereo) [Example 7, rac-(1R*,2R*,4R*)-2-(2-{[3-(1H-Benzoimidazol-2-yl)-propyl]-methyl-amino}-ethyl)-5-(3-fluoro-phenyl)-bicyclo[2.2.2]oct-5-en-2-ol]	5.36
CCOc1ccc(CCN(CC)CC[C@]2(O)C[C@H]3CC[C@@H]2C=C3c2ccccc2)cc1OCC (relative stereo) [Example 38, rac-(1R*,2R*,4R*)-2-(2-{[2-(3,4-Diethoxy-phenyl)-ethyl]-ethyl-amino}-ethyl)-5-phenyl-bicyclo[2.2.2]oct-5-en-2-ol]	5.17
CC(C)C(=O)O[C@@]1(CCN(C)CCCc2cncc3ccccc23)C[C@H]2CC[C@@H]1C=C2c1ccccc1 (relative stereo) [Example 48A, rac-Isobutyric acid (1R*,2R*,4R*)-2-{2-[(3-isoquinolin-4-yl-propyl)-methyl-amino]-ethyl}-5-phenyl-bicyclo[2.2.2]oct-5-en-2-yl ester]	< 5.00
CC(=O)Nc1cccc2[nH]c(CCCN(C)CC[C@]3(OC(=O)C(C)C)C[C@H]4CC[C@@H]3C=C4c3ccccc3)nc12 (relative stereo) [Example 56A, rac-Isobutyric acid (1R*,2R*,4R*)-2-(2-{[3-(4-acetylamino-1H-benzoimidazol-2-yl)-propyl]-methyl-amino}-ethyl)-5-phenyl-bicyclo[2.2.2]oct-5-en-2-yl ester]	5.60
CN(CCCc1nc2ccccc2[nH]1)CC[C@]1(O)C[C@H]2CC[C@@H]1C[C@]21OCc2ccccc21 (relative stereo) [Example 80, rac-(1R*,2S*,4R*,5R*)-5-(2-{[3-(1H-Benzoimidazol-2-yl)-propyl]-methyl-amino}-ethyl)-3′H-spiro(bicyclo[2.2.2]octane-2,1′-isobenzofuran)-5-ol]	5.43
COc1ccc(Cl)c2[nH]c(CCCN(C)CC[C@]3(OC(=O)C(C)C)C[C@H]4CC[C@@H]3C=C4c3ccccc3)nc12 (relative stereo) [Example 58A, rac-Isobutyric acid (1R*,2R*,4R*)-2-(2-{[3-(7-chloro-4-methoxy-1H-benzoimidazol-2-yl)-propyl]-methyl-amino}-ethyl)-5-phenyl-bicyclo[2.2.2]oct-5-en-2-yl ester]	6.12
CC(C)C(=O)OC1(CCN(C)CCCc2nc3ccccc3[nH]2)CC2CCC1CC2c1ccccc1 (racemic) [Example 73A, rac-Isobutyric acid (1R*,2R*,4R*,5S*)-2-(2-{[3-(1H-benzoimidazol-2-yl)-propyl]-methyl-amino}-ethyl)-5-phenyl-bicyclo[2.2.2]oct-2-yl ester and rac-isobutyric acid (1R*,2R*,4R*,5R*)-2-(2-{[3-(1H-benzoimidazol-2-yl)-propyl]-methyl-amino}-ethyl)-5-phenyl-bicyclo[2.2.2]oct-2-yl ester]	5.76 and 5.70
COc1cc2nc(CCCN(C)CC[C@]3(O)C[C@H]4CC[C@@H]3C=C4c3ccccc3)[nH]c2cc1OC (relative stereo) [Example 28, rac-(1R*,2R*,4R*)-2-(2-{[3-(5,6-Dimethoxy-1H-benzoimidazol-2-yl)-propyl]-methyl-amino}-ethyl)-5-phenyl-bicyclo[2.2.2]oct-5-en-2-ol]	5.60
Cc1cccc(C2=C[C@H]3CC[C@@H]2C[C@]3(CCN(C)CCCc2nc3ccccc3[nH]2)OC(=O)C(C)C)c1 (relative stereo) [Example 5A, rac-Isobutyric acid (1R*,2R*,4R*)-2-(2-{[3-(1H-benzoimidazol-2-yl)-propyl]-methyl-amino}-ethyl)-5-(3-methyl-phenyl)-bicyclo[2.2.2]oct-5-en-2-yl ester]	5.46
COCC(C)(COC)C(=O)N(C)CCCN(C)CC[C@]1(O)C[C@H]2CC[C@@H]1C=C2c1ccccc1 (relative stereo) [Example 51, rac-N-(3-{[2-((1R*,2R*,4R*)-2-Hydroxy-5-phenyl-bicyclo[2.2.2]oct-5-en-2-yl)-ethyl]-methyl-amino}-propyl)-3-methoxy-2-methoxymethyl-2,N-dimethyl-propionamide]	< 5.00

Now from value to molecule:

pIC50	Molecule
5.07	CC(C)C(=O)O[C@]1(CCN(C)CCCc2nc3ccccc3[nH]2)C[C@@H]2CC[C@H]1CN2c1ccccc1 [Example 74A, Isobutyric acid (1S,4S,5R)-5-(2-{[3-(1H-benzoimidazol-2-yl)-propyl]-methyl-amino}-ethyl)-2-phenyl-2-aza-bicyclo[2.2.2]oct-5-yl ester]
< 5.00	CN(CCCc1nc2ccccc2[nH]1)CC[C@]1(O)C[C@H]2CC[C@@H]1C=C2c1cccnc1 (relative stereo) [Example 9, rac-(1R*,2R*,4R*)-2-(2-{[3-(1H-Benzoimidazol-2-yl)-propyl]-methyl-amino}-ethyl)-5-pyridin-3-yl-bicyclo[2.2.2]oct-5-en-2-ol]
5.78	CC(C)Oc1cccc2nc(CCCN(C)CC[C@]3(OC(=O)C(C)C)C[C@H]4CC[C@@H]3C=C4c3ccccc3)[nH]c12 (relative stereo) [Example 33A, rac-Isobutyric acid (1R*,2R*,4R*)-2-(2-{[3-(7-isopropoxy-1H-benzoimidazol-2-yl)-propyl]-methyl-amino}-ethyl)-5-phenyl-bicyclo[2.2.2]oct-5-en-2-yl ester]
5.50	CC(C)C(=O)O[C@@]1(CCN(C)CCCc2nc3ccccc3[nH]2)C[C@H]2CC[C@@H]1C=C2c1cccc(F)c1 (relative stereo) [Example 7A, rac-Isobutyric acid (1R*,2R*,4R*)-2-(2-{[3-(1H-benzoimidazol-2-yl)-propyl]-methyl-amino}-ethyl)-5-(3-fluoro-phenyl)-bicyclo[2.2.2]oct-5-en-2-yl ester]
5.63	CC(C)C(=O)O[C@@]1(CCN(C)CCCc2nc3ccccc3[nH]2)C[C@H]2CC[C@@H]1C=C2c1cccnc1 (relative stereo) [Example 9A, rac-Isobutyric acid (1R*,2R*,4R*)-2-(2-{[3-(1H-benzoimidazol-2-yl)-propyl]-methyl-amino}-ethyl)-5-pyridin-3-yl-bicyclo[2.2.2]oct-5-en-2-yl ester]
5.37	Cc1ccccc1C1=C[C@H]2CC[C@@H]1C[C@]2(CCN(C)CCCc1nc2ccccc2[nH]1)OC(=O)C(C)C (relative stereo) [Example 4A, rac-Isobutyric acid (1R*,2R*,4R*)-2-(2-{[3-(1H-benzoimidazol-2-yl)-propyl]-methyl-amino}-ethyl)-5-(2-methyl-phenyl)-bicyclo[2.2.2]oct-5-en-2-yl ester]
5.58	CO[C@@]1(c2ccccc2)C[C@H]2CC[C@@H]1C[C@@]2(CCN(C)CCCc1nc2ccccc2[nH]1)OC(=O)C(C)C (relative stereo) [Example 77A, rac-Isobutyric acid (1R*,2S*,4R*,5S*)-2-(2-{[3-(1H-benzoimidazol-2-yl)-propyl]-methyl-amino}-ethyl)-5-methoxy-5-phenyl-bicyclo[2.2.2]oct-2-yl ester]
5.48	COc1ccccc1C1=CC2CCC1CC2(O)CCN(C)CCCc1nc2ccccc2[nH]1 (racemic) [Example 23, rac-(1R*,2R*,4R*)-2-(2-{[3-(1H-Benzoimidazol-2-yl)-propyl]-methyl-amino}-ethyl)-5-(2-methoxy-phenyl)-2-yl-bicyclo[2.2.2]oct-5-en-2-ol]
5.64	COc1ccccc1-c1cnc(CCCN(C)CC[C@]2(OC(=O)C(C)C)C[C@H]3CC[C@@H]2C=C3c2ccccc2)[nH]1 (relative stereo) [Example 72A, rac-Isobutyric acid (1R*,2R*,4R*)-2-[2-({3-[5-(2-methoxy-phenyl)-1H-imidazol-2-yl]-propyl}-methyl-amino)-ethyl]-5-phenyl-bicyclo[2.2.2]oct-5-en-2-yl ester]
5.32	CN(CCCc1nc2cc(Cl)c(Cl)cc2[nH]1)CC[C@]1(OC(=O)C2CC2)C[C@H]2CC[C@@H]1C=C2c1ccccc1 (relative stereo) [Example 27B, rac-Cyclopropanecarboxylic acid (1R*,2R*,4R*)-2-(2-{[3-(5,6-dichloro-1H-benzoimidazol-2-yl)-propyl]-methyl-amino}-ethyl)-5-phenyl-bicyclo[2.2.2]oct-5-en-2-yl ester]
5.87	rac-(1R*,3R*,4R*)-1,2,3,4,9,10-Hexahydro-3-hydroxy-3-{N-methyl-N-(3-benzimidazol-2-ylpropyl)aminoethyl}-1,4-ethanophenanthrene [Example 18]

From patent publication US8202885B2, “Bridged six-membered ring compounds” (Actelion Pharmaceuticals Ltd., priority 2007, dated 2012)
